From US20100041089A1, “IMPROVED METHOD FOR DETECTING CHEMICAL […]” (priority 2006, published 2010)

Tested on: yeast genes (expressed mRNA)
Assay: DNA chip measurement of expressed mRNA of yeast genes after culture with a toxic chemical substance
Assay type: cell-based, Saccharomyces cerevisiae S288C
Experimental: Yeast (Saccharomyces cerevisiae S288C (a SUC2mal mel gap2 CUP1)) were cultured at 25° C. on YPD medium (yeast extract 1%, polypeptone 2%, glucose 2%). One of toxic chemical substances was added to the cell at logarithmic growth phase, and the cell was further cultured for two hours. Cell was cultured without any chemical substance in the same condition, and was used as a control. Concentrations of the chemical substances were defined to inhibit the growth of the yeast but not lead to death.
After the completion of cultivation, the culture was centrifuged to collect the cells. To the cells, sodium acetate buffer (50 mM sodium acetate, 10 mM EDTA, 1% SDS) was added, and the mixture was shaken at 65° C. for five minutes, followed by returning to room temperature, and obtaining the supernatant, which procedure was repeated two times. To the supernatant, ½ amount of a solution of phenol/chloroform (1:1) was added, and the mixture was centrifuged to give a supernatant, an equal amount of chloroform was added, and the mixture was centrifuged to give a supernatant. To the supernatant, an equal amount of isopropanol containing 0.3 M sodium acetate was added, and the mixture was allowed to stand at room temperature for 30 minutes, after which the mixture was centrifuged to give sediment of the whole RNAs. Seventy % ethanol was added to the sediment, and the mixture was again centrifuged to give sediment, which was then dried and dissolved in water. mRNA was isolated from the whole RNAs as followings. In view of the fact that a poly A chain is attached to the 3′ terminus of mRNA, a polynucleotide having a poly T structure which was immobilized on the surface of latex beads was used to trap the mRNA, and then the mRNA was washed and eluted with spine column (Oligotex-dT30<Super>mRNA Purification Kit, Takara). Reverse transcription of the mRNA was conducted with a reverse transcriptase (Super Script II Reverse Transcriptase; catalogue No. 18064-014, GibcoBRL) using fluorescence-labeled nucleotides to give cDNAs that were introduced with Cy3-dUTP or Cy5-dUTP during the reverse transcription.
The labeled cDNAs were dissolved in TE buffer (10 mM Tris-HCl/1 mM EDTA, pH 8.0), and the solution was dropped on the DNA chip containing the whole genes of yeast (DNA Chip Research Inc. Japan) so that the cDNAs were hybridized on the DNA chip at 65° C. for over 12 hours. The fluoresces intensity of the DNA chip was read with a scanner, and the ratio relative to the fluorescence intensity resulting from the absence of chemical substance was estimated as the following, which is shown in Tables 1 to 9.
In the Tables, “Intensity” indicated in the rightmost column is a value of the level of expressed mRNA of each gene in control cells as divided by the average level of the expressions of the whole genes. A gene of which mRNA level is lower in control, and is higher in cases of addition of chemical substance, is especially useful in the detection of toxic substances.
Here, when a ratio of an amount of mRNA expressed in the presence of the chemical substance to an amount of mRNA expressed in the absence of the chemical substance is two or more, then it is considered significant.

S=C([S-])NCCNC(=S)[S-].[Zn+2] [(11), Zinc N,N′-ethylenebis(dithiocarbamate)]
The level of expressed mRNA in the presence of chemical substance/The level of expressed mRNA in the absence of chemical substance (yeast gene YNL115C, cultured two hours with substance): 1.1
The level of expressed mRNA in the presence of chemical substance/The level of expressed mRNA in the absence of chemical substance (yeast gene YNL134C, cultured two hours with substance): 5.0
The level of expressed mRNA in the presence of chemical substance/The level of expressed mRNA in the absence of chemical substance (yeast gene YNL156C, cultured two hours with substance): 1.4
The level of expressed mRNA in the presence of chemical substance/The level of expressed mRNA in the absence of chemical substance (yeast gene YNL190W, cultured two hours with substance): 1.0
level of expressed mRNA in the presence of chemical substance / level in the absence of chemical substance (yeast gene YNL194C, cultured two hours with the chemical substance): 17.1
The level of expressed mRNA in the presence of chemical substance/The level of expressed mRNA in the absence of chemical substance (yeast gene YNL195C, cultured two hours with the chemical substance): 2.9
The level of expressed mRNA in the presence of chemical substance/The level of expressed mRNA in the absence of chemical substance (yeast gene YNL208W, cultured two hours with substance): 2.5
The level of expressed mRNA in the presence of chemical substance/The level of expressed mRNA in the absence of chemical substance (yeast gene YNL234W, cultured two hours with substance): 1.3
The level of expressed mRNA in the presence of chemical substance/The level of expressed mRNA in the absence of chemical substance (yeast gene YNL241C, cultured for two hours with substance): 3.0
The level of expressed mRNA in the presence of chemical substance/The level of expressed mRNA in the absence of chemical substance (yeast gene YNL281W, cultured two hours with substance): 1.6
The level of expressed mRNA in the presence of chemical substance/The level of expressed mRNA in the absence of chemical substance (yeast gene YNL300W, cultured two hours with substance): 0.9
The level of expressed mRNA in the presence of chemical substance/The level of expressed mRNA in the absence of chemical substance (yeast gene YNL305C, cultured two hours with substance): 1.8
The level of expressed mRNA in the presence of chemical substance/The level of expressed mRNA in the absence of chemical substance (yeast gene YNR064C, cultured two hours with substance): 0.7
The level of expressed mRNA in the presence of chemical substance/The level of expressed mRNA in the absence of chemical substance (yeast gene YNR068C, cultured two hours with substance): 1.1
The level of expressed mRNA in the presence of chemical substance/The level of expressed mRNA in the absence of chemical substance (yeast gene YOL032W, cultured two hours with substance): 1.4
The level of expressed mRNA in the presence of chemical substance/The level of expressed mRNA in the absence of chemical substance (yeast gene YOL036W, cultured two hours with substance): 2.2
The level of expressed mRNA in the presence of chemical substance/The level of expressed mRNA in the absence of chemical substance (yeast gene YOL047C, cultured two hours with substance): 0.9
The level of expressed mRNA in the presence of chemical substance/The level of expressed mRNA in the absence of chemical substance (yeast gene YOL071W, cultured two hours with substance): 4.3
The level of expressed mRNA in the presence of chemical substance/The level of expressed mRNA in the absence of chemical substance (yeast gene YOL082W, cultured two hours with substance): 1.6
The level of expressed mRNA in the presence of chemical substance/The level of expressed mRNA in the absence of chemical substance (yeast gene YOL083W, cultured two hours with substance): 1.3
The level of expressed mRNA in the presence of chemical substance/The level of expressed mRNA in the absence of chemical substance (yeast gene YOL117W, cultured two hours with substance): 1.0
The level of expressed mRNA in the presence of chemical substance/The level of expressed mRNA in the absence of chemical substance (yeast gene YOL131W, cultured two hours with substance): 1.4
The level of expressed mRNA in the presence of chemical substance/The level of expressed mRNA in the absence of chemical substance (yeast gene YOL150C, cultured two hours with substance): 9.4
The level of expressed mRNA in the presence of chemical substance/The level of expressed mRNA in the absence of chemical substance (yeast gene YOL152W): 5.9
The level of expressed mRNA in the presence of chemical substance/The level of expressed mRNA in the absence of chemical substance (yeast gene YOL162W, cultured two hours with substance): 4.3
The level of expressed mRNA in the presence of chemical substance/The level of expressed mRNA in the absence of chemical substance (yeast gene YOR019W, cultured two hours with substance): 1.7
The level of expressed mRNA in the presence of chemical substance/The level of expressed mRNA in the absence of chemical substance (yeast gene YOR178C, cultured two hours with the chemical substance): 4.1
The level of expressed mRNA in the presence of chemical substance/The level of expressed mRNA in the absence of chemical substance (yeast gene YOR197W, cultured two hours with substance): 1.0
The level of expressed mRNA in the presence of chemical substance/The level of expressed mRNA in the absence of chemical substance (yeast gene YOR215C, cultured two hours with substance): 1.6
The level of expressed mRNA in the presence of chemical substance/The level of expressed mRNA in the absence of chemical substance (yeast gene YOR225W, cultured two hours with substance): 1.2
The level of expressed mRNA in the presence of chemical substance/The level of expressed mRNA in the absence of chemical substance (yeast gene YOR248W, cultured two hours with substance): 2.3
The level of expressed mRNA in the presence of chemical substance/The level of expressed mRNA in the absence of chemical substance (yeast gene YOR382W, cultured two hours with substance): 2.5
The level of expressed mRNA in the presence of chemical substance/The level of expressed mRNA in the absence of chemical substance (yeast gene YPL052W, cultured two hours with substance): 1.2
The level of expressed mRNA in the presence of chemical substance/The level of expressed mRNA in the absence of chemical substance (yeast gene YPL087W, cultured two hours with substance): 2.5
The level of expressed mRNA in the presence of chemical substance/The level of expressed mRNA in the absence of chemical substance (yeast gene YPL171C, cultured for two hours with substance): 37.0
The level of expressed mRNA in the presence of chemical substance/The level of expressed mRNA in the absence of chemical substance (yeast gene YPL196W, cultured two hours with substance): 1.7
The level of expressed mRNA in the presence of chemical substance/The level of expressed mRNA in the absence of chemical substance (yeast gene YPL206C, cultured two hours with substance): 1.5
The level of expressed mRNA in the presence of chemical substance/The level of expressed mRNA in the absence of chemical substance (yeast gene YPL222W, cultured two hours with substance): 1.2
The level of expressed mRNA in the presence of chemical substance/The level of expressed mRNA in the absence of chemical substance (yeast gene YPR023C, cultured two hours with substance): 1.7
The level of expressed mRNA in the presence of chemical substance/The level of expressed mRNA in the absence of chemical substance (yeast gene YPR079W, cultured two hours with substance): 0.8
The level of expressed mRNA in the presence of chemical substance/The level of expressed mRNA in the absence of chemical substance (yeast gene YPR151C, cultured two hours with substance): 1.4
